Assay results reported in patent US7230139B2, “Diterpenoid compounds, compositions thereof and their use as anti-cancer or anti-fungal agents” (priority 2004, dated 2007).

Tests used:
[1] = tested on: C33A human cervical cancer cells; assay: C33A cervical tumor xenograft in SCID mice; format: in vivo, CB17 SCID/SCID female mice; settings: for Tumor growth compared to vehicle: two-way ANOVA
Experimental: The resultant mice are a model for a human having cervical cancer.
The C33A human cervical cancer cells were maintained in RPMI supplemented with 10% inactivated fetal bovine serum and 1% penicillin-streptomycin-L-Glutamine, under 5% CO2 at 37° C., and passaged twice a week. The cells were grown at a confluency lower than 70% and then collected with Trypsin (Bio-Whittaker, Md., USA). The cells were then centrifuged and washed twice using phosphate buffered saline solution (PBS) and resuspended in PBS at 2×10^6 cells per 100 μl. Viability was examined by staining with Trypan Blue and only flasks with cell viability of greater than 95% were used for in vivo studies.
C33A cells were transplanted subcutaneously into the flank of female CB17 SCID/SCID mice. Each mouse was inoculated with a suspension of 2×10^6 tumor cells per 100 μL on day zero. The following six treatment groups of ten mice each were used: (a) a negative control group treated with intravenous (i.v.) injection of vehicle, (b) a negative control group treated with intraperitoneal (i.p.) injection of vehicle, (c) a positive control group treated with i.p. injection of Cisplatin, (d) a group treated with i.v. injection of a Compound 50, (e) a group treated with i.p. injection of Compound 50, and (f) a group treated with subcutaneous (s.c.) injection of Compound 50.
Treatment started on day thirteen after C33A cells transplantation for Compound 50 treated groups and on day fourteen for Cisplatin treated group. Compound 50 was administered i.v., i.p., and s.c. once daily for five consecutive days at a dose of 10, 15 and 30 mg/kg, respectively. Compound 50 was prepared as a working solution of 1.5 mg/mL in a vehicle solution of 20% Cremaphor EL (Sigma, St. Louis, Mo., USA), 10% Ethanol and 5% Dextrose (Abbot Laboratories, QC, Canada). The negative control groups were treated with vehicle alone. The positive control group was treated once every 3 days for fifteen days at a dose of 3.5 mg/kg. Cisplatin was formulated in PBS on each day of the injection and was administered i.p.
The mice were weighed and the tumors measured on day 13 and every 2 to 3 days after treatment commenced. Observations continued for 36 days after initial tumor implantation. The changes in body weight and in the calculated tumor volume were plotted (FIGS. 4 and 5). Statistical analysis was performed using GraphPad Prism (GraphPad Software Inc., San Diego, Calif.). Two-way ANOVA was used to determine how the treatment affected tumor growth over time. Following the two-way ANOVA, post-tests were performed using the Benferroni method to determine the statistical difference between the mean tumor-size of the two groups being compared on every day that the tumors were measured. Four animals in the negative control injected i.v. with vehicle and two animals in the group treated i.v. with Compound 50 died during the observation period. Therefore, the data collected from these animals were excluded from all calculations and the total number of animals in the groups changed to six for the negative control injected i.v. with vehicle and eight for the group treated i.v. with Compound 50.

[2] = Solubility by filtration and LC/MS; format: physicochemical; settings: in water (printed for Compound 74)
Experimental: To determine whether a compound is soluble in a solution, the solution was filtered on […] polytetrafluoroethylene filters (Whatman Inc. Clifton, N.J., USA) and the compound concentration in the filtrate was measured by LC/MS and compared to the expected concentration. If the concentration of the compound in the filtrate was equal +/−15% to the expected concentration, the compound was judged to be soluble in the solution.
The detection of Compound 74 or Compound 50 by LC/MS was carried out using the HPLC system that consisted of a Waters Alliance quaternary gradient HPLC pump (Waters, Milford, Mass., USA) and a ZQ2000 single quadrupole mass spectrometer (Waters, Milford, Mass., USA). The column used was XTerra MS C18: 50×2.1 mm, […] column at 20° C. Samples were injected and separated under the following conditions: The mobile phase “A” consisted of 5 mM ammonium formate, 0.1% formic acid in water and mobile phase “B” consisted of 5 mM ammonium formate, 0.1% formic acid in methanol. A linear gradient was applied as follows: 0 to 1 min, 94% “A” and 6% “B”; 1 to 4 min, 6% to 100% “B”; 4 to 8 min 100% “B”; 8 to 9 min, 100% “B” to 6% “B”; 9 to 12 min, 94% “A” and 6% “B”. […] Compounds were detected at m/z equal to their respective molecular weight plus 1.

Compound: COc1ccc2c(c1)C1(C)C=CC(=O)C(C)(C)C1=C(O)C2=O (racemic) [Compound 50]
- Tumor growth compared to vehicle ([1]; i.p. 15 mg/kg once a day for five days): significant reduction (p<0.001)
- Mean tumor-size compared to vehicle ([1]; i.p., day 34 and day 36): significantly (p<0.05) smaller mean tumor-size
- Tumor growth compared to vehicle ([1]; i.v. 10 mg/kg once a day for five days): significant reduction (p<0.001)
- Mean tumor-size compared to vehicle ([1]; i.v. 10 mg/kg, day 36): significantly (p<0.05) smaller mean tumor-size
- Tumor growth compared to vehicle ([1]; s.c. 30 mg/kg once a day for five days): significant reduction (p<0.001)
- Mean tumor-size compared to vehicle ([1]; s.c., day 34 (p<0.01) and day 36 (p<0.001)): significantly smaller mean tumor-size
- solubility [2]: < 100 µg/mL
